From patent US20120295838A1, “Selective poly-substituted glycine antibiotics and related compositions” (priority 2008, published 2012)
In brackets after ≈: the same amount, converted by molar mass. Numbered stars: 1 amine (or outer) side, 2 acyl side, 3 side chain; on linkers, the order of the positions; unused ones are H or OH. Square brackets hold non-standard residues; d marks the D form. Peptide text beside a SMILES is read from it. X2 = CCC[C@H](C)N(CC(=O)[*:2])[*:1]; Nspe = C[C@H](NCC(=O)O)c1ccccc1; Nphe = O=C(O)CNCc1ccccc1; Nlys = NCCCCNCC(=O)O

Experiments:
E. coli ATCC 35218 = assay type: cell-based; conditions: ATCC 35218
MTS assay, NIH 3T3 cells = assay type: cell-based, mouse; conditions: mouse, NIH 3T3 fibroblast cells
Outline: (§1)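 NIH/3T3 cells seeded at 5,000 per well, grown a day in DMEM with 10% FBS, then washed and exposed to serially diluted peptoid in HBSS together with MTS reagent. Absorbance at 490 nm read after 3 hours at 37 °C as a measure of metabolic activity; mean of six replicates.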

[1] = system: NIH 3T3 mouse fibroblast cells; test: MTS assay, NIH 3T3 cells; assay type: cell-based
Outline: as §1

[2] = system: Enterobacter aerogenes ATCC 35029; assay type: cell-based; conditions: ATCC 35029
Experimental: (§2) Antibacterial assays. MICs were determined according to CLSI M7-A6 protocols in a 96-well microtiter plate. In test wells, 50 uL bacterial inoculum (5×10^5 CFU/ml) in Mueller-Hinton broth (MHB) was added to 50 μL peptoid solution in MHB (prepared by 1:2 serial dilutions). Positive controls contained 50 μL inoculum and 50 μL MHB without peptoid. […] MIC values reported were reproducible between three independent experimental replicates, each consisting of two parallel trials. Broad-spectrum antimicrobial susceptibility testing was performed against BSL2 pathogens by Nova Biologicals, Inc. (Conroe, Tex.).
(§3) Broad-spectrum antibacterial assays. MICs of compounds were determined by microdilution procedure in Mueller-Hinton broth (MHB) in accordance with CLSI M7-A6 protocols in a manner similar to that described for the screen antibacterial assays. Inoculated microtiter plates were incubated at 35° C. for 24 hours prior to the result being recorded. Four ATCC strains that were used as standards are recommended by CLSI: Pseudomonas aeruginosa ATCC 27853, Escherichia coli ATCC 25922, Staphylococcus aureus ATCC 29213 and Enterococcus faecalis ATCC 29212. Other strains from the ATCC collection include Proteus vulgaris ATCC 49132, Proteus mirabilis ATCC 35659, Klebsiella pneumoniae ATCC 33495, Enterobacter aerogenes ATCC 35029 and Serratia marcescens ATCC 13880. S. aureus NRS100 (COL) is a well characterized methicillian-resistant S. aureus (MRSA) strain. The strains S. aureus VAN1 and S. aureus VAN2, vancomycin-resistant MRSA strains that were isolated in Michigan and Pennsylvania, were the first vancomycin-resistant strains clinically isolated. S. aureus NRS 119 and S. aureus NRS 120 are linezolid-resistant isolates from the Network on Antimicrobial Resistance in S. aureus (NARSA) collection. E. faecalis 99 and E. faecium 106 are vancomycin-resistant enterococcal strains.

Enterococcus faecalis 99 = assay type: cell-based; conditions: 99
Experimental: as §2, §3

[3] = system: Enterococcus faecalis ATCC 29212; assay type: cell-based; conditions: ATCC 29212
Experimental: as §2, §3

Enterococcus faecium 106 = assay type: cell-based; conditions: 106
Experimental: as §2, §3

[4] = system: Escherichia coli ATCC 25922; assay type: cell-based; conditions: ATCC 25922
Experimental: as §2, §3

[5] = system: Klebsiella pneumoniae ATCC 33495; assay type: cell-based; conditions: ATCC 33495
Experimental: as §2, §3

[6] = system: Proteus vulgaris ATCC 49132; assay type: cell-based; conditions: ATCC 49132
Experimental: as §2, §3

[7] = system: Pseudomonas aeruginosa ATCC 27853; assay type: cell-based; conditions: ATCC 27853
Experimental: as §2, §3

[8] = system: Staphylococcus aureus ATCC 29213; assay type: cell-based; conditions: ATCC 29213
Experimental: as §2, §3

[9] = system: Staphylococcus aureus NRS100 (COL); assay type: cell-based; conditions: NRS100 (COL)
Experimental: as §2, §3

[10] = system: Staphylococcus aureus NRS119; assay type: cell-based; conditions: NRS119
Experimental: as §2, §3

[11] = system: Staphylococcus aureus NRS120; assay type: cell-based; conditions: NRS120
Experimental: as §2, §3

[12] = system: Staphylococcus aureus VAN1; assay type: cell-based; conditions: VAN1
Experimental: as §2, §3

[13] = system: Staphylococcus aureus VAN2; assay type: cell-based; conditions: VAN2
Experimental: as §2, §3

human erythrocytes = test: Hemolysis assay; assay type: cell-based
Outline: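 Heparinised fresh human erythrocytes, 20 vol % in PBS pH 7.4, mixed 1:1 with 1:2 serially diluted peptoid and incubated 1 h at 37 °C. PBS alone as 0% and 0.2 vol % Triton X-100 as 100% hemolysis; after 1200 g spin for 15 min, supernatant A350 read.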

[14] = system: A549 lung epithelial cells; test: MTS assay, A549 cells
Experimental: The biocompatibility of selected oligomers with A549 lung epithelial cells was evaluated using the MTS [3-(4,5-dimethylthiazol-2-yl)-5-(3-carboxymethoxyphenyl)-2-(4-sulfophenyl)-2H-tetrazolium] assay.
MTS Assays. A549 carcinoma-derived lung epithelial cells (ATTC CCL-185) were cultured in Ham's F12K media (ATTC, Manassas, Va.). A peptoid solution plate (100 μL/well) was prepared by serial dilution of aqueous peptoid stocks in media. Peptoid solutions were transferred onto a 96-well plate of day-old cell monolayers containing 100 μL/well media with 5000 cells/well. MTS reagent (Promega Corporation, Madison, Wis.) (40 μL/well) was added to each well and the plate was incubated at 37° C. for 3 h, after which absorbance at 490 nm was determined. Percent inhibition was determined as [1−(A−Atest blank)/(Acontrol−Ablank)]×100, where A is the absorbance of the test well and Acontrol the average absorbance of wells with cells exposed to media and MTS (no peptoid). Atest blank (media, MTS, and peptoid) and Ablank (media and MTS) were background absorbances measured in the absence of cells. The average of six replicates are reported, and error bars show one standard deviation.

B. subtilis ATCC 6633 = assay type: cell-based; conditions: ATCC 6633
Outline: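 Broth microdilution MICs per CLSI M7-A6 in cation-adjusted Mueller-Hinton broth, using 1×10^6 CFU/mL inoculum added 1:1 to twofold serial peptoid dilutions. Values reproducible across three independent experiments, each with two parallel trials.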

E. coli JM109 = assay type: cell-based; conditions: Table 1; SR = (HD10)/(E. coli MIC)
From the text: An initial set of 15 ampetoid analogs was synthesized to determine whether peptoids are affected by structural and sequence modifications in a manner consistent with AMP activities. The designs for ampetoids in this library were derived from two antibacterial and selective amphipathic dodecamers, 1 and 2. Peptoid 1 [H-(Nlys-Nspe-Nspe)4-NH2] is composed of 2/3 Nspe, the peptoid analog of phenylalanine, and 1/3 Mys, the peptoid analog of lysine (see FIG. 1 for the structures of representative peptoid monomers and corresponding N-substituents). Peptoid 2 [H-(Mys-Nssb-Nspe)4-NH2] contains 1/3 isoleucine-like Nssb monomers in place of Nspe. The variant sequences were designed to effect changes in chirality, length, hydrophobicity, charge, and amphipathicity. All of these compounds were tested for antibacterial activity against representative BSL1 Gram-negative (E. coli JM109) and Gram-positive (B. subtilis BR151) bacterial strains. As an initial measure of selectivity, the lytic activity of the peptoids was determined against human erythrocytes. Table 1 summarizes the sequences synthesized, the solvent composition at RP-HPLC elution as a relative measure of molecular hydrophobicity, and antibacterial and hemolytic activities.
Antibacterial assays. MICs were determined according to CLSI M7-A6 protocols in a 96-well microtiter plate. […]

C[C@@H](c1ccccc1)N(CC(N)=O)C(=O)CN(Cc1ccccc1)C(=O)CN(CCCCN)C(=O)CN(C(=O)CN(Cc1ccccc1)C(=O)CN(CCCCN)C(=O)CN(C(=O)CN(Cc1ccccc1)C(=O)CN(CCCCN)C(=O)CN(C(=O)CN(Cc1ccccc1)C(=O)CNCCCCN)[C@@H](C)c1ccccc1)[C@@H](C)c1ccccc1)[C@@H](C)c1ccccc1 [1-Npm2,5,8,11, H-(Nlys-Npm-Nspe)4-NH2] (H-[Nlys][Nphe][Nspe][Nlys][Nphe][Nspe][Nlys][Nphe][Nspe][Nlys][Nphe][Nspe]-NH2)
E. coli MIC (E. coli ATCC 35218): 6.3 µM
CC50 at 3 h (MTS assay, NIH 3T3 cells): 6.8 µM
ID50 [1]: 6.8 µM
MIC [2]: 64 µg/mL (≈ 36.3 µM)
MIC (Enterococcus faecalis 99): 64 µg/mL (≈ 36.3 µM)
MIC [3]: 8 µg/mL (≈ 4.54 µM)
MIC (Enterococcus faecium 106): 4 µg/mL (≈ 2.27 µM)
MIC [4]: 8 µg/mL (≈ 4.54 µM)
MIC [5]: 16 µg/mL (≈ 9.07 µM)
MIC [6]: 64 µg/mL (≈ 36.3 µM)
MIC [7]: 64 µg/mL (≈ 36.3 µM)
MIC [8]: 8 µg/mL (≈ 4.54 µM)
MIC [9]: 8 µg/mL (≈ 4.54 µM)
MIC [10]: 16 µg/mL (≈ 9.07 µM)
MIC [11]: 16 µg/mL (≈ 9.07 µM)
MIC [12]: 8 µg/mL (≈ 4.54 µM)
MIC [13]: 8 µg/mL (≈ 4.54 µM)

C[C@@H](c1ccccc1)N(CC(N)=O)C(=O)CN(C(=O)CN(CCCCN)C(=O)CN(C(=O)CN(C(=O)CN(CCCCN)C(=O)[C@@H]1CCCN1C(=O)CN(C(=O)CN(CCCCN)C(=O)CN(C(=O)CN(C(=O)CNCCCCN)[C@@H](C)c1ccccc1)[C@@H](C)c1ccccc1)[C@@H](C)c1ccccc1)[C@@H](C)c1ccccc1)[C@@H](C)c1ccccc1)[C@@H](C)c1ccccc1 [1-Pro6, H-Nlys-Nspe-Nspe-Nlys-Nspe-L-Pro-(Nlys-Nspe-Nspe)2-NH2] (H-[Nlys][Nspe][Nspe][Nlys][Nspe]P[Nlys][Nspe][Nspe][Nlys][Nspe][Nspe]-NH2)
HD10 (human erythrocytes): 83 µM
HD50 (human erythrocytes): > 200 µM
ID10 relative to that of pexiganan [14]: 10 times
MIC for B. subtilis ATCC 6633 (B. subtilis ATCC 6633): 1.6 µM
E. coli MIC (E. coli ATCC 35218): 12.5 µM
MIC for E. coli ATCC 35218 (E. coli ATCC 35218): 12.5 µM
CC50 at 3 h (MTS assay, NIH 3T3 cells): 18 µM

C[C@@H](c1ccccc1)N(CC(N)=O)C(=O)CN(Cc1ccccc1)C(=O)CN(CCCCN)C(=O)CN(Cc1ccccc1)C(=O)CN(Cc1ccccc1)C(=O)CN(CCCCN)C(=O)CN(Cc1ccccc1)C(=O)CN(Cc1ccccc1)C(=O)CN(CCCCN)C(=O)CN(Cc1ccccc1)C(=O)CN(Cc1ccccc1)C(=O)CNCCCCN [1achiral-Nspe12, H-(Nlys-Npm-Npm)3-(Nlys-Npm-Nspe)-NH2]
HD50 (human erythrocytes): > 200 µM
E. coli MIC (E. coli ATCC 35218): 6.3 µM
CC50 at 3 h (MTS assay, NIH 3T3 cells): 15 µM
ID50 [1]: 15 µM

C[C@@H](c1ccccc1)N(CC(N)=O)C(=O)CN(C(=O)CN(CCCCN)C(=O)[C@@H]1CCCN1C(=O)CN(C(=O)CN(CCCCN)C(=O)CN(C(=O)CN(C(=O)CN(CCCCN)C(=O)CN(C(=O)CN(C(=O)CNCCCCN)[C@@H](C)c1ccccc1)[C@@H](C)c1ccccc1)[C@@H](C)c1ccccc1)[C@@H](C)c1ccccc1)[C@@H](C)c1ccccc1)[C@@H](C)c1ccccc1 [1-Pro9, H-(Nlys-Nspe-Nspe)2-Nlys-Nspe-L-Pro-Nlys-Nspe-Nspe-NH2] (H-[Nlys][Nspe][Nspe][Nlys][Nspe][Nspe][Nlys][Nspe]P[Nlys][Nspe][Nspe]-NH2)
E. coli MIC (E. coli ATCC 35218): 12.5 µM
CC50 at 3 h (MTS assay, NIH 3T3 cells): 24 µM
ID50 [1]: 24 µM

CCC[C@H](C)N(CC(=O)N(CC(N)=O)[C@@H](C)c1ccccc1)C(=O)CN(CCCCN)C(=O)CN(C(=O)CN(C(=O)CN(CCCCN)C(=O)CN(C(=O)CN(C(=O)CN(CCCCN)C(=O)CN(C(=O)CN(C(=O)CNCCCCN)[C@@H](C)CCC)[C@@H](C)c1ccccc1)[C@@H](C)CCC)[C@@H](C)c1ccccc1)[C@@H](C)CCC)[C@@H](C)c1ccccc1 [2-Nsap2,5,8,11, H-(Nlys-Nsap-Nspe)4-NH2] (H-[Nlys][X2][Nspe][Nlys][X2][Nspe][Nlys][X2][Nspe][Nlys][X2][Nspe]-NH2)
Selectivity ratio (SR) (E. coli JM109): >16

C[C@@H](c1ccccc1)N(CC(N)=O)C(=O)CN(C(=O)CN(CCCCN)C(=O)CN(C(=O)CN(C(=O)CN(CCCCN)C(=O)CN(C(=O)CN(C(=O)CN(CCCCN)C(=O)CN(C(=O)CN(C(=O)CN(CCCCN)C(=O)CN(C(=O)CN(C(=O)CNCCCCN)[C@@H](C)c1ccccc1)[C@@H](C)c1ccccc1)[C@@H](C)c1ccccc1)[C@@H](C)c1ccccc1)[C@@H](C)c1ccccc1)[C@@H](C)c1ccccc1)[C@@H](C)c1ccccc1)[C@@H](C)c1ccccc1)[C@@H](C)c1ccccc1 [115 mer, H-(Nlys-Nspe-Nspe)5-NH2]
cytotoxicity (in words) ([14]; A549 lung epithelial cells, MTS, FIG. 2): no worse than pexiganan

C[C@@H](c1ccccc1)N(CC(N)=O)C(=O)CN(C(=O)CN(CCCCN)C(=O)CN(C(=O)CN(C(=O)CN(CCCCN)C(=O)CN(C(=O)CN(C(=O)CN(CCCCN)C(=O)[C@@H]1CCCN1C(=O)CN(C(=O)CNCCCCN)[C@@H](C)c1ccccc1)[C@@H](C)c1ccccc1)[C@@H](C)c1ccccc1)[C@@H](C)c1ccccc1)[C@@H](C)c1ccccc1)[C@@H](C)c1ccccc1 [1-Pro3, H-Nlys-Nspe-L-Pro-(Nlys-Nspe-Nspe)3-NH2] (H-[Nlys][Nspe]P[Nlys][Nspe][Nspe][Nlys][Nspe][Nspe][Nlys][Nspe][Nspe]-NH2)
HD10 (human erythrocytes): 74 µM
E. coli MIC (E. coli ATCC 35218): 12.5 µM
CC50 at 3 h (MTS assay, NIH 3T3 cells): 12 µM
ID50 [1]: 12 µM
